The structures appear in SMILES notation.

One may read the inhibition as the drop in the measured response relative to a control, in per cent. A higher inhibition goes with a response far below the control.

Test [1] concerns the target T1, cloned human α2B receptors (Homo sapiens, UniProt P18089).
T1 construct: expressed in transfected cells; host or cells: CHO cells
T1 sequence (P18089 1-450): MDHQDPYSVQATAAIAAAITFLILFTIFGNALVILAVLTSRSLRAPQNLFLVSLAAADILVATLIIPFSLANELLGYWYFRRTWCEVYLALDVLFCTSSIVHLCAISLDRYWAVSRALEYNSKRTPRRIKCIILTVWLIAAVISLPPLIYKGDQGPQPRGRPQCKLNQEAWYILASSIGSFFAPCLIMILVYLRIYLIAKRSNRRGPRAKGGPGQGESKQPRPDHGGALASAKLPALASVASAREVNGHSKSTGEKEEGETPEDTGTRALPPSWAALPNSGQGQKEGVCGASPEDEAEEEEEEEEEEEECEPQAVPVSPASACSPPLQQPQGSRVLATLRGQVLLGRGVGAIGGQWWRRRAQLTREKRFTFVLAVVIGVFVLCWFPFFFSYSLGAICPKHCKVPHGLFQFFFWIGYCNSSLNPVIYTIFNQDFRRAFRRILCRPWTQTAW
As to the kind of experiment: In vitro binding affinity for α2B receptors (3H-rauwolscine competition binding). The conditions noted are these: at a test concentration of 10^-8 M or less; CHO cell expressing cloned human α2B receptors. The protocol: (§1) The interaction of the compounds of formula (I) with α2 receptors was assessed in in vitro radioligand binding experiments.
(§2) In general, a low concentration of a radioligand with a high binding affinity for a particular receptor is incubated with a sample of a tissue preparation enriched in a particular receptor or with a preparation of cells expressing cloned human receptors in a buffered medium. During the incubation, the radioligand binds to the receptor. When equilibrium of binding is reached, the receptor bound radioactivity is separated from the non-bound radioactivity, and the receptor bound activity is counted. The interaction of the test compounds with the receptor is assessed in competition binding experiments. Various concentrations of the test compound are added to the incubation mixture containing the receptor preparation and the radioligand. Binding of the radioligand will be inhibited by the test compound in proportion to its binding affinity and its concentration.
The radioligand used for α2B receptor binding is ^3 H-rauwolscine and the receptor preparation used is the CHO cell expressing cloned human α2B receptors.

In test [2] the target is T2, cloned human α2C receptors (Homo sapiens, UniProt P18825).
T2 construct: expressed in transfected cells; host or cells: CHO cells
T2 sequence (P18825 1-462): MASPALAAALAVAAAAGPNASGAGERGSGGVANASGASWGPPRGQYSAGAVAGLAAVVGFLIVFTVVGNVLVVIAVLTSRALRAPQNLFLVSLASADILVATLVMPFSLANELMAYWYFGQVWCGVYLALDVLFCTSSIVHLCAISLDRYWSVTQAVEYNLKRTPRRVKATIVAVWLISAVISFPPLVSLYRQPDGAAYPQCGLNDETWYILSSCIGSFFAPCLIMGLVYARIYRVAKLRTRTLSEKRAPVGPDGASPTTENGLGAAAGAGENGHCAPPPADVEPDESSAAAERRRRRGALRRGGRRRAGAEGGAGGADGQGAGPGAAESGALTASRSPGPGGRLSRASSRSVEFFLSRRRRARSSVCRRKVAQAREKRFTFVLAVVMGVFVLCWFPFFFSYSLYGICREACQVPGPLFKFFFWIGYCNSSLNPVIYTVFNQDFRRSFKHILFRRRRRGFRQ
As to the kind of experiment: In vitro binding affinity for α2C receptors (3H-rauwolscine competition binding). As to conditions: at a test concentration of 10^-8 M or less; CHO cell expressing cloned human α2C receptors.

Test [3] concerns the target T3, cloned human α2A receptors (Homo sapiens, UniProt P08913).
T3 sequence (P08913 1-465): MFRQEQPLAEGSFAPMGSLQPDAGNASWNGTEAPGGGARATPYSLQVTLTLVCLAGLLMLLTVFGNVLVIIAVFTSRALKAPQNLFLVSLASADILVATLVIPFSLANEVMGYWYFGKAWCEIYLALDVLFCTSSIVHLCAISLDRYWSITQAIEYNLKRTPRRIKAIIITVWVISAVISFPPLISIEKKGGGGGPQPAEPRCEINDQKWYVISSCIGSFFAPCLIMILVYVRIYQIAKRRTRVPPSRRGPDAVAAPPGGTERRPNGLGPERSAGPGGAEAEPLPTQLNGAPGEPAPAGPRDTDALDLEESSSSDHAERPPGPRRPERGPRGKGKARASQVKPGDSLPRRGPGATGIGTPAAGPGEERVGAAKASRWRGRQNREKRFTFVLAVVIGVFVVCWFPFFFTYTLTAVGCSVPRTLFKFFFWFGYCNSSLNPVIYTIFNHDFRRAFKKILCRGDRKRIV
In words: In vitro binding affinity for α2A receptors (3H-rauwolscine competition binding). The conditions noted are these: at a test concentration of 10^-8 M or less; CHO cell expressing cloned human α2A receptors. The protocol:
as §1, §2
The radioligand used for α2A receptor binding is ^3 H-rauwolscine and the receptor preparation used is the Chinese Hamster Ovary (CHO) cell expressing cloned human α2A receptors.

The test system of a further test is α2 -adrenoceptor. As to the kind of experiment: Xylazine-induced loss of righting reflex in rats. Type of test: in vivo. As to conditions: one hour before xylazine 15 mg/kg i.v., male rats, lowest tested dose at which at least 66% of animals showed no loss of righting reflex. Here is the method: This test is based upon the fact that centrally acting α2 -adrenoceptor antagonists reverse the loss of righting reflex induced by an intravenous injection of the α2 agonist xylazine. One hour before injection of xylazine (15 mg/kg, i.v.), male rats (200-250 g) were pretreated with a test compound (er os (p.o.) or subcutaneously (s.c.)) or solvent.

For `CSc1nc(C)c(CCN2CCc3oc4ccccc4c3C2)c(=O)n1C` [Compound 56], in test [1], the inhibition at up to 0.01 µM is above 50%.

Take `O=c1c(CCN2CCc3oc4ccccc4c3C2)c(-c2ccccc2)nc2n1CCCC2` [Compound 10]: the inhibition at up to 0.01 µM in test [2] and in test [1] was above 50% throughout. Besides, in test [3], the inhibition is above 50%. Moreover, the “LAD in mg/kg (lowest active dose for xylazine antagonism)” value (“LAD in mg/kg” for short) in the test with α2 -adrenoceptor (s.c.) was determined as 10.00 mg/kg.

Regarding `Cc1nc2c(C)cccn2c(=O)c1CCN1CCc2oc3ccccc3c2C1` [Compound 33], the inhibition at up to 0.01 µM in test [2] and in test [1] was above 50% throughout. Also, the inhibition in test [3] is above 50%. Besides, the “LAD in mg/kg” value with α2 -adrenoceptor (s.c.) was 10.00 mg/kg.

In test [1], `Cc1nc2n(C)c(C)cn2c(=O)c1CCN1CCc2oc3ccccc3c2C1` [Compound 30] yielded an inhibition at up to 0.01 µM above 50%. In addition, the “LAD in mg/kg” value with α2 -adrenoceptor (s.c.) was 2.50 mg/kg.

In the case of `O=c1[nH]c2ccccc2n1CCN1CCc2oc3ccccc3c2C1` [Compound 52], the inhibition at up to 0.01 µM in test [2] and in test [1] was above 50% each time. This compound also yielded an inhibition in test [3] above 50%. For the same compound, the “LAD in mg/kg” value in the test on α2 -adrenoceptor (s.c.) stood at 10.00 mg/kg.

`Cc1nc2ccc(Br)cn2c(=O)c1CCN1CCc2oc3ccccc3c2C1` [Compound 31] showed an inhibition at up to 0.01 µM in test [1] above 50%. Also, the “LAD in mg/kg” value with α2 -adrenoceptor (s.c.) was determined as 0.16 mg/kg.

Turning to `O=c1[nH]c2ccccc2n1CCCN1CCc2oc3ccccc3c2C1` [Compound 53], the inhibition at up to 0.01 µM in test [2] and in test [1] was above 50% each time. The same compound yielded an inhibition in test [3] above 50%.

Take `Cc1nc2ccccn2c(=O)c1CCN1CCc2oc3ccccc3c2C1` [Compound 66]: the inhibition at up to 0.01 µM in test [2] and in test [1] was above 50% each time. In test [3], the inhibition is above 50%. Further, in the test with α2 -adrenoceptor (s.c.), the “LAD in mg/kg” value is listed as 0.63 mg/kg.

As to `Cc1nc2sc3ccccc3n2c(=O)c1CCN1CCc2oc3ccccc3c2C1` [Compound 62], the inhibition at up to 0.01 µM in test [2] and in test [1] was above 50% each time. Also, the inhibition in test [3] was above 50%. The “LAD in mg/kg” value in the test with α2 -adrenoceptor (p.o.) is reported as 10.00 mg/kg.

In turn, `c1ccc2sc(NCCCCCN3CCc4oc5ccccc5c4C3)nc2c1` [Compound 48] gave an inhibition at up to 0.01 µM in test [2] above 50%. In test [3], this compound returned an inhibition above 50%. Besides, the “LAD in mg/kg” value in the test on α2 -adrenoceptor (s.c.) amounted to 10.00 mg/kg.

In the case of `O=c1[nH]c2ccccc2c(=O)n1CCCCN1CCc2oc3ccccc3c2C1` [Compound 63], the inhibition at up to 0.01 µM in test [2] and in test [1] was above 50% each time. In test [3], this compound registered an inhibition above 50%.

Values taken from patent US6156757A, “1,2,3,4-tetrahydro-benzofuro[3,2-C]pyridine derivatives” (Janssen Pharmaceutica N.V., priority 1997, dated 2000).
